Experimental data taken from US20240425492A1, “POLYMORPHS AS ERBB INHIBITORS” (Black Diamond Therapeutics, Inc., priority 2021, published 2024).
Values after ≈ are worked out from the molar mass of the structure shown.

What was measured:
[1] = Bulk stability under accelerated storage conditions (XRPD and HPLC); conditions: for Bulk (XRPD) / Purity, Bulk (HPLC): Solid state
Excerpt: Solids obtained after bulk stability study were characterized by XRPD and HPLC.

[2] = Hygroscopicity by DVS at 25° C.; format: physicochemical; conditions: for Desorp. (%) / Sorp. (%): DVS 25° C.
Method: Dynamic Vapor Sorption (DVS): DVS analysis was performed using Intrinsic. Analysis was performed using parameters as set forth below.
The hygroscopicity for Form C and Form F was examined. See, e.g., Table E.

[3] = Solubility study in aqueous media at 37° C. (HPLC of supernatants, pH); conditions: for solubility / solubility at 2 h / solubility at 24 h: 37 °C, thermodynamic from solid
Method: 2.01 mg of the free base Form C (equal to 2 mg free base after correction for water content) was weighed into 2 mL vial. 2.09 mg of the free base Form F (equal to 2 mg free base after correction for water content) was weighed into a 2 mL vial. I mL of aqueous media was added, respectively. These suspensions were stirred at 37° C. at a rate of 400 rpm. These suspensions were taken out after 2 h and 24 h, and then centrifuged at 14,000 rpm for 5 minutes. The supernatants were analyzed by HPLC. The pH of the supernatants were tested.

[4] = 25° C./92.5% RH in an open vial, 2 weeks
[5] = 25° C./92.5% RH in an open vial, 4 weeks
[6] = 40° C./75% RH in an open vial, 2 weeks
[7] = 40° C./75% RH in an open vial, 4 week
[8] = 60° C., tight container, 2 weeks
[9] = 60° C., tight container, 4 weeks
[10] = SGF, pH 2, simulated gastric fluid
[11] = pH 1.0 HCl solution (0.1N), pH 1, simulated gastric fluid
[12] = pH 4.5 acetate buffer (50 mM), pH 4.5, aqueous buffer
[13] = pH 6.8 phosphate buffer (50 mM), pH 6.8, aqueous buffer

For `CN1C[C@H]2C[C@@]2(C#Cc2cc3ncnc(Nc4cccc(Cl)c4F)c3cc2NC(=O)/C=C/CN2CCOCC2)C1` [Form C], the “HPLC area Purity” value ([1]; 1 Month, 5° C.) was 98.2%, the Water content ([1]; 1 Month, 5° C.) was 0.5% and the “impurity RRT0.967” value ([1]; 1 Month, 5° C.) was 0.07%. For the same molecule, the “impurity RRT0.971” value ([1]; 1 Month, 5° C.) was 0.08%, the “impurity RRT1.20” value ([1]; 1 Month, 5° C.) was 0.06% and the “impurity RRT1.24” value ([1]; 1 Month, 5° C.) was 1.4%. The “impurity RRT1.26” value ([1]; 1 Month, 5° C.) was 0.13%, the “impurity RRT1.28” value ([1]; 1 Month, 5° C.) was 0.11% and the “HPLC area Purity” value ([1]; 1 Month, 25° C./60% RH) was 98.2. For the same molecule, the Water content ([1]; 1 Month, 25° C./60% RH) was 0.4%, the “impurity RRT0.967” value ([1]; 1 Month, 25° C./60% RH) was 0.07% and the “impurity RRT0.971” value ([1]; 1 Month, 25° C./60% RH) was 0.08%. The “impurity RRT1.20” value ([1]; 1 Month, 25° C./60% RH) was 0.06%, the “impurity RRT1.24” value ([1]; 1 Month, 25° C./60% RH) was 1.4% and the “impurity RRT1.26” value ([1]; 1 Month, 25° C./60% RH) was 0.13%. The “impurity RRT1.28” value ([1]; 1 Month, 25° C./60% RH) was 0.11%, the “HPLC area Purity” value ([1]; 1 Month, 40° C./75% RH) was 98.2% and the Water content ([1]; 1 Month, 40° C./75% RH) was 0.7%. For the same molecule, the “impurity RRT0.967” value ([1]; 1 Month, 40° C./75% RH) was 0.08%, the “impurity RRT0.971” value ([1]; 1 Month, 40° C./75% RH) was 0.08% and the “impurity RRT1.20” value ([1]; 1 Month, 40° C./75% RH) was 0,07%. The “impurity RRT1.24” value ([1]; 1 Month, 40° C./75% RH) was 1.4%, the “impurity RRT1.26” value ([1]; 1 Month, 40° C./75% RH) was 0.13% and the “impurity RRT1.28” value ([1]; 1 Month, 40° C./75% RH) was 0.11%. The “HPLC area Purity” value ([1]; Initial) was 98.1, the Water content ([1]; Initial) was 0.4% and the “impurity RRT0.967” value ([1]; Initial) was 0.09%. For the same molecule, the “impurity RRT0.971” value ([1]; Initial) was 0.06%, the “impurity RRT1.20” value ([1]; Initial) was 0.06% and the “impurity RRT1.24” value ([1]; Initial) was 1.4%. The “impurity RRT1.26” value ([1]; Initial) was 0.13%, the “impurity RRT1.28” value ([1]; Initial) was 0.12% and the “impurity RrRT1.12” value ([1]; Initial) was 0.05%. The polymorph ([1]; Initial) was “Form C”, the “Bulk (XRPD)” value [1, 4] was “No form change” and the “Purity, Bulk (HPLC)” value [1, 4] was 96.6%. The “Bulk (XRPD)” value [1, 5] was “No form change”, the “Purity, Bulk (HPLC)” value [1, 5] was 96.4% and the “Bulk (XRPD)” value [1, 6] was “No form change”. For the same molecule, the “Purity, Bulk (HPLC)” value [1, 6] was 95.5%, the “Bulk (XRPD)” value [1, 7] was “No form change” and the “Purity, Bulk (HPLC)” value [1, 7] was 94.6%. The “Bulk (XRPD)” value [1, 8] was “No form change”, the “Purity, Bulk (HPLC)” value [1, 8] was 95.5% and the “Bulk (XRPD)” value [1, 9] was “No form change”. For the same molecule, the “Purity, Bulk (HPLC)” value [1, 9] was 93.3%, the “form change after bulk stability study (XRPD)” value ([1]; three accelerated conditions, two weeks and four weeks) was “do not change forms” and the “DVS water uptake at 90% RH” value ([2]; 25° C., dm/dt = 0.002%) was 1.6% water uptake at 90% RH. The “DVS water uptake at 95% RH” value ([2]; 25° C., dm/dt = 0.002%) was 2.3% water uptake at 95% RH, the “Desorp. (%)” value ([2]; Relative Humidity 0%, first Desorp.) was 0.2% and the “Sorp. (%)” value ([2]; Relative Humidity 0%, first Sorp.) was 0.2%. For the same molecule, the “Desorp. (%)” value ([2]; Relative Humidity 0%, second Desorp.) was 0.0%, the “Sorp. (%)” value ([2]; Relative Humidity 0%, second Sorp.) was 0.0% and the “Desorp. (%)” value ([2]; Relative Humidity 10%, first Desorp.) was 0.3%. For the same molecule, the “Sorp. (%)” value ([2]; Relative Humidity 10%, first Sorp.) was 0.2%, the “Desorp. (%)” value ([2]; Relative Humidity 10%, second Desorp.) was 0.1% and the “Sorp. (%)” value ([2]; Relative Humidity 10%, second Sorp.) was 0.1%. For the same molecule, the “Desorp. (%)” value ([2]; Relative Humidity 20%, first Desorp.) was 0.4%, the “Sorp. (%)” value ([2]; Relative Humidity 20%, first Sorp.) was 0.3% and the “Desorp. (%)” value ([2]; Relative Humidity 20%, second Desorp.) was 0.2%. For the same molecule, the “Sorp. (%)” value ([2]; Relative Humidity 20%, second Sorp.) was 0.2%, the “Desorp. (%)” value ([2]; Relative Humidity 30%, first Desorp.) was 0.5% and the “Sorp. (%)” value ([2]; Relative Humidity 30%, first Sorp.) was 0.4%. For the same molecule, the “Desorp. (%)” value ([2]; Relative Humidity 30%, second Desorp.) was 0.3%, the “Sorp. (%)” value ([2]; Relative Humidity 30%, second Sorp.) was 0.3% and the “Desorp. (%)” value ([2]; Relative Humidity 40%, first Desorp.) was 0.5%. The “Sorp. (%)” value ([2]; Relative Humidity 40%, first Sorp.) was 0.4%, the “Desorp. (%)” value ([2]; Relative Humidity 40%, second Desorp.) was 0.4% and the “Sorp. (%)” value ([2]; Relative Humidity 40%, second Sorp.) was 0.3%. The “Sorp. (%)” value ([2]; Relative Humidity 50%, first Sorp.) was 0.5%, the “Desorp. (%)” value ([2]; Relative Humidity 50%, second Desorp.) was 0.6% and the “Sorp. (%)” value ([2]; Relative Humidity 60%, first Sorp.) was 0.6%. For the same molecule, the “Desorp. (%)” value ([2]; Relative Humidity 60%, second Desorp.) was 1.1%, the “Sorp. (%)” value ([2]; Relative Humidity 70%, first Sorp.) was 0.8% and the “Desorp. (%)” value ([2]; Relative Humidity 70%, second Desorp.) was 1.4%. For the same molecule, the “Sorp. (%)” value ([2]; Relative Humidity 80%, first Sorp.) was 1.2%, the “Desorp. (%)” value ([2]; Relative Humidity 80%, second Desorp.) was 1.7% and the “Sorp. (%)” value ([2]; Relative Humidity 90%, first Sorp.) was 1.8%. The “Desorp. (%)” value ([2]; Relative Humidity 90%, second Desorp.) was 2.2%, the “Sorp. (%)” value ([2]; Relative Humidity 95%, first Sorp.) was 2.5% and the “Desorp. (%)” value ([2]; Relative Humidity 95%, second Desorp.) was 2.5%. The “XRPD after DVS test” value ([2]; DVS at 25° C.) was “No form change”, the “stability in FaSSIF-v1” value ([3]; 37° C., FaSSIF-v1) was “degraded” and the “stability in FeSSIF-v1” value ([3]; 37° C., FeSSIF-v1) was “degraded”. For the same molecule, the “2 h Solubility” value ([3]; FaSSIF-v1, pH 6.5, 37° C.) was “Degradation”, the “24 h Solubility” value ([3]; FaSSIF-v1, pH 6.5, 37° C.) was “Degradation” and the “2 h Solubility” value ([3]; FeSSIF-v1, pH 5.0, 37° C.) was “Degradation”. For the same molecule, the “24 h Solubility” value ([3]; FeSSIF-v1, pH 5.0, 37° C.) was “Degradation”, the solubility [3, 10] was over 2000 µg/mL and the solubility at 2 h [3, 10] was over 2000 µg/mL. For the same molecule, the solubility at 24 h [3, 10] was over 2000 µg/mL, the “24 h (pH) of supernatant” value ([3]; SGF, pH 2.0, 37° C.) was “pH 3.7” and the “24 h (pH) of supernatant” value ([3]; Water, 37° C.) was “pH 7.4”. The “24 h (pH) of supernatant” value ([3]; pH 1.0 (0.1N HCl), 37° C.) was “pH 1.0”, the solubility at 2 h [3, 11] was over 2000 µg/mL and the solubility at 24 h [3, 11] was over 2000 µg/mL. The solubility ([3]; pH 1.0 HCl solution, pH 1, simulated gastric fluid) was over 2000 µg/mL, the “24 h (pH) of supernatant” value ([3]; pH 4.5 (50 mM) acetate buffer, 37° C.) was “pH 4.5” and the solubility [3, 12] was over 2000 µg/mL. The solubility at 2 h [3, 12] was 2000 µg/mL (≈ 3560 µM), the solubility at 24 h [3, 12] was over 2000 µg/mL and the “24 h (pH) of supernatant” value ([3]; pH 6.8 (50 mM) phosphate buffer, 37° C.) was “pH 6.7”. For the same molecule, the solubility [3, 13] was about 20 µg/mL (≈ 35.6 µM), the solubility at 2 h [3, 13] was 20.4 µg/mL (≈ 36.4 µM) and the solubility at 24 h [3, 13] was 16.5 µg/mL (≈ 29.4 µM). The solubility ([3]; pure water, water) was under 10 µg/mL, the solubility at 2 h ([3]; water) was 1.6 µg/mL (≈ 2.85 µM) and the solubility at 24 h ([3]; water) was 2 µg/mL (≈ 3.56 µM).
